# Calls of active or inactive are those of the source. The calls are words filed in the database; no cut-off is given here.
# What was measured:
# T-24 = test: Antiproliferative activity against human T24 cells assessed as cell growth inhibition by MTT assay; type: functional, cell-based
# MGC-803 [1] = test: Antiproliferative activity against human MGC-803 cells assessed as cell growth inhibition by MTT assay; type: functional, cell-based
# CNE-2 [2] = test: Antiproliferative activity against human CNE-2 cells assessed as cell growth inhibition by MTT assay; type: functional, cell-based
# A2780 = test: Antiproliferative activity against human A2780 cells assessed as cell growth inhibition by MTT assay; type: functional, cell-based
# MGC-803 [3] = test: Antitumor activity against human MGC-803 cells xenografted in nude mouse assessed as reduction in tumor volume growth rate at 4 mg/kg, ip administrated every other day for 21 days relative to control; type: functional; design: scale not given: the % may be the effect or the level left; details: time 21 day
# MGC-803 [4] = test: Antitumor activity against human MGC-803 cells xenografted in nude mouse assessed as reduction in tumor volume growth rate at 8 mg/kg, ip administrated every other day for 21 days relative to control; type: functional; design: scale not given: the % may be the effect or the level left; details: time 21 day
# MGC-803 [5] = test: Antitumor activity against human MGC-803 cells xenografted in nude mouse assessed as reduction in tumor weight at 4 mg/kg, ip administrated every other day for 21 days relative to control; type: functional; design: scale not given: the % may be the effect or the level left; details: time 21 day
# MGC-803 [6] = test: Antitumor activity against human MGC-803 cells xenografted in nude mouse assessed as reduction in tumor weight at 8 mg/kg, ip administrated every other day for 21 days relative to control; type: functional; design: scale not given: the % may be the effect or the level left; details: time 21 day
# Homo sapiens [7] = species: Homo sapiens; test: Binding affinity to pBR322 DNA (unknown origin) assessed as DNA intercalation at 20 to 100 uM by electrophoresis assay; details: dose 20-100 µM
# Homo sapiens [8] = species: Homo sapiens; test: Binding affinity to pBR322 DNA (unknown origin) assessed as induced retardation of DNA migration at 20 to 100 uM by gel electrophoresis assay; details: dose 20-100 µM
# CNE-2 [9] = test: Induction of cell cycle arrest in human CNE-2 cells assessed as accumulation of cells at G1 phase at 0.5 uM measured after 48 hrs by flow cytometry analysis (Rvb= 73.18%); type: functional
# CNE-2 [10] = test: Induction of cell cycle arrest in human CNE-2 cells assessed as accumulation of cells at G2 phase at 0.5 uM measured after 48 hrs by flow cytometry analysis (Rvb= 6.99%); type: functional
# CNE-2 [11] = test: Induction of cell cycle arrest in human CNE-2 cells assessed as accumulation of cells at G1 phase at 1 uM measured after 48 hrs by flow cytometry analysis (Rvb= 73.18%); type: functional
# CNE-2 [12] = test: Induction of cell cycle arrest in human CNE-2 cells assessed as accumulation of cells at G2 phase at 1 uM measured after 48 hrs by flow cytometry analysis (Rvb= 6.99%); type: functional
# CNE-2 [13] = test: Induction of cell cycle arrest in human CNE-2 cells assessed as accumulation of cells at S phase at 1 uM measured after 48 hrs by flow cytometry analysis (Rvb= 19.83%); type: functional
# CNE-2 [14] = test: Induction of cell cycle arrest in human CNE-2 cells assessed as accumulation of cells at G1 phase at 2 uM measured after 48 hrs by flow cytometry analysis (Rvb= 73.18%); type: functional
# CNE-2 [15] = test: Induction of cell cycle arrest in human CNE-2 cells assessed as accumulation of cells at G2 phase at 2 uM measured after 48 hrs by flow cytometry analysis (Rvb= 6.99%); type: functional
# CNE-2 [16] = test: Downregulation of CDK2 level in human CNE-2 cells measured after 48 hrs by Western blot analysis; type: functional, cell-based; details: dose <= 2.0 µM
# CNE-2 [17] = test: Downregulation of cyclin E level in human CNE-2 cells measured after 48 hrs by Western blot analysis; type: functional, cell-based; details: dose <= 2.0 µM
# CNE-2 [18] = test: Downregulation of cyclin B level in human CNE-2 cells measured after 48 hrs by Western blot analysis; type: functional, cell-based; details: dose <= 2.0 µM
# CNE-2 [19] = test: Upregulation of p27 level in human CNE-2 cells measured after 48 hrs by Western blot analysis; type: functional, cell-based; details: dose <= 2.0 µM
# CNE-2 [20] = test: Induction of apoptosis in human CNE-2 cells assessed as viable cells at 0.5 uM measured after 24 hrs by annexin-V-FITC and PI staining based flow cytometry analysis (reference value: 94.8%); type: functional; details: read-out: Activity
# CNE-2 [21] = test: Induction of apoptosis in human CNE-2 cells assessed as early apoptotic cells at 0.5 uM measured after 24 hrs by annexin-V-FITC and PI staining based flow cytometry analysis (reference value: 0.439%); type: functional
# CNE-2 [22] = test: Induction of apoptosis in human CNE-2 cells assessed as late apoptotic cells at 0.5 uM measured after 24 hrs by annexin-V-FITC and PI staining based flow cytometry analysis (reference value: 3.79%); type: functional
# CNE-2 [23] = test: Induction of apoptosis in human CNE-2 cells assessed as viable cells at 1 uM measured after 24 hrs by annexin-V-FITC and PI staining based flow cytometry analysis (reference value: 94.8%); type: functional; details: read-out: Activity
# CNE-2 [24] = test: Induction of apoptosis in human CNE-2 cells assessed as early apoptotic cells at 1 uM measured after 24 hrs by annexin-V-FITC and PI staining based flow cytometry analysis (reference value: 0.439%); type: functional
# CNE-2 [25] = test: Induction of apoptosis in human CNE-2 cells assessed as necrotic cells at 1 uM measured after 24 hrs by annexin-V-FITC and PI staining based flow cytometry analysis (reference value: 0.959%); type: functional
# CNE-2 [26] = test: Induction of apoptosis in human CNE-2 cells assessed as early apoptotic cells at 2 uM measured after 24 hrs by annexin-V-FITC and PI staining based flow cytometry analysis (reference value: 0.439%); type: functional
# CNE-2 [27] = test: Induction of apoptosis in human CNE-2 cells assessed as late apoptotic cells at 2 uM measured after 24 hrs by annexin-V-FITC and PI staining based flow cytometry analysis (reference value: 3.79%); type: functional
# CNE-2 [28] = test: Induction of apoptosis in human CNE-2 cells assessed as necrotic cells at 2 uM measured after 24 hrs by annexin-V-FITC and PI staining based flow cytometry analysis (reference value: 0.959%); type: functional
# CNE-2 [29] = test: Induction of apoptosis in human CNE-2 cells at 0.5 to 2 uM by Hoechst 33258 staining based fluorescence microscopic analysis; type: functional, cell-based; details: dose 0.5-2 µM
# CNE-2 [30] = test: Induction of ROS generation in human CNE-2 cells at 0.5 to 2 uM incubated for 24 hrs by DCFH2-DA probe based analysis; type: functional, cell-based; details: dose 0.5-2 µM
Structure (SMILES),IC50 (T-24),IC50 (MGC-803 [1]),IC50 (CNE-2 [2]),IC50 (A2780),Activity (MGC-803 [3]),Activity (MGC-803 [4]),Activity (MGC-803 [5]),Activity (MGC-803 [6]),Activity (Homo sapiens [7]),Activity (Homo sapiens [8]),Activity (CNE-2 [9]),Activity (CNE-2 [10]),Activity (CNE-2 [11]),Activity (CNE-2 [12]),Activity (CNE-2 [13]),Activity (CNE-2 [14]),Activity (CNE-2 [15]),Activity (CNE-2 [16]),Activity (CNE-2 [17]),Activity (CNE-2 [18]),also measured
O=C1c2cccc3c(N4CCOCC4)c([N+](=O)[O-])cc(c23)C(=O)N1CCNCCN1C(=O)c2cccc3c(N4CCOCC4)c([N+](=O)[O-])cc(c23)C1=O,1240 nM,90 nM,410 nM,620 nM,49.7%,46%,44.7%,46%,Active,Active,66.68%,1.55%,66.18%,2.69%,31.13%,39.09%,11.96%,Dose-Dependent Effect,Dose-Dependent Effect,Dose-Dependent Effect,Activity (CNE-2 [19]): Dose-Dependent Effect; viability at 0.5 µM (CNE-2 [20]): 82.6%; Activity (CNE-2 [21]): 3.7%; Activity (CNE-2 [22]): 6.61%; viability at 1 µM (CNE-2 [23]): 83.4%; Activity (CNE-2 [24]): 2.19%; Activity (CNE-2 [25]): 7.3%; Activity (CNE-2 [26]): 2.62%; Activity (CNE-2 [27]): 13.4%; Activity (CNE-2 [28]): 13.9%; Activity (CNE-2 [29]): Active; Activity (CNE-2 [30]): Active
CN(C)CCN1C(=O)c2cccc3c(N4CCOCC4)c([N+](=O)[O-])cc(c23)C1=O,1540 nM,1560 nM,1480 nM,4810 nM,59.9%,56.1%,34.4%,46.9%,Active,Active,72.47%,7.03%,69.25%,12.63%,18.12%,38.9%,25.48%,Dose-Dependent Effect,Dose-Dependent Effect,Dose-Dependent Effect,Activity (CNE-2 [19]): Dose-Dependent Effect; viability at 0.5 µM (CNE-2 [20]): 84%; Activity (CNE-2 [21]): 5.68%; Activity (CNE-2 [22]): 8.17%; viability at 1 µM (CNE-2 [23]): 82.9%; Activity (CNE-2 [24]): 3.01%; Activity (CNE-2 [25]): 5.56%; Activity (CNE-2 [26]): 17%; Activity (CNE-2 [27]): 9.2%; Activity (CNE-2 [28]): 1.91%; Activity (CNE-2 [29]): Active; Activity (CNE-2 [30]): Active

# From ChEMBL document CHEMBL5252609, “Design, synthesis, and antitumor evaluation of morpholine substituted bisnaphthalimides as DNA targeting agents” (Bioorg Med Chem Lett, 2023)
